Measured values reported in ChEMBL document CHEMBL3044635, “Effect of propiconazole and difenoconazole on the control of anthracnose of chilli fruits caused by Colletotrichum capsici” (Crop Prot, 2006).
In brackets after ≈: the same amount, converted by molar mass.

How the values were obtained:
[1] = tested on: Colletotrichum truncatum; assay: Fungicidal activity against Colletotrichum capsici assessed as sporulation at 25 ug/ml incubated 16 hr photoperiod for 20 days by haemocytometer (reference value: 0.081 x 10^6 ml'-1); assay type: functional
[2] = tested on: Colletotrichum truncatum; assay: Fungicidal activity against Colletotrichum capsici infected chilli plant assessed as fruit mass measured per pot at 0.05% applied as spray on day 10 post inoculation and twice every 20 days measured on day 155 post sowing in green house conditions (reference value: 85.3 to 94.5 g); assay type: functional
[3] = tested on: Colletotrichum truncatum; assay: Fungicidal activity against Colletotrichum capsici assessed as sporulation at 5 ug/ml incubated 16 hr photoperiod for 20 days by haemocytometer (reference value: 0.081 x 10^6 ml'-1); assay type: functional
[4] = tested on: Colletotrichum truncatum; assay: Fungicidal activity against Colletotrichum capsici assessed as spore germination at 50 ug/ml after 48 to 96 hr (reference value: 70.2 CFU); assay type: functional
[5] = tested on: Colletotrichum truncatum; assay: Fungicidal activity against Colletotrichum capsici infected chilli plant assessed as percent disease index at 0.025% applied as spray on day 10 post inoculation and twice every 20 days measured on day 155 post sowing in field conditions (reference value: 51 to 56.5%); assay type: functional
[6] = tested on: Colletotrichum truncatum; assay: Fungicidal activity against Colletotrichum capsici assessed as mycelial biomass at 25 ug/ml incubated 16 hr photoperiod for 20 days (reference value: 675 mg); assay type: functional
[7] = tested on: Colletotrichum truncatum; assay: Fungicidal activity against Colletotrichum capsici infected chilli plant assessed as fruit length measured per plot at 0.05% applied as spray on day 10 post inoculation and twice every 20 days measured on day 155 post sowing in field conditions (reference value: 8 to 8.7 cm); assay type: functional
[8] = tested on: Colletotrichum truncatum; assay: Fungicidal activity against Colletotrichum capsici infected chilli plant assessed as fruit length at 0.025% applied as spray on day 10 post inoculation and twice every 20 days measured on day 155 post sowing in green house conditions (reference value: 6.8 to 7 cm); assay type: functional
[9] = tested on: Colletotrichum truncatum; assay: Fungicidal activity against Colletotrichum capsici assessed as sporulation at 10 ug/ml incubated 16 hr photoperiod for 20 days by haemocytometer (reference value: 0.081 x 10^6 ml'-1); assay type: functional
[10] = tested on: Colletotrichum truncatum; assay: Fungicidal activity against Colletotrichum capsici assessed as linear growth at 50 ug/ml incubated 16 hr photoperiod for 20 days (reference value: 90 mm); assay type: functional
[11] = tested on: Colletotrichum truncatum; assay: Fungicidal activity against Colletotrichum capsici assessed as spore germination at 25 ug/ml after 48 to 96 hr (reference value: 70.2 CFU); assay type: functional
[12] = tested on: Colletotrichum truncatum; assay: Fungicidal activity against Colletotrichum capsici assessed as sporulation at 0.1 ug/ml incubated 16 hr photoperiod for 20 days by haemocytometer (reference value: 0.081 x 10^6 ml'-1); assay type: functional
[13] = tested on: Colletotrichum truncatum; assay: Fungicidal activity against Colletotrichum capsici infected chilli plant assessed as fruit yield measured per plot at 0.025% applied as spray on day 10 post inoculation and twice every 20 days measured on day 155 post sowing in field conditions (reference value: 8.25 to 9.3 kg); assay type: functional
[14] = tested on: Colletotrichum truncatum; assay: Fungicidal activity against Colletotrichum capsici infected chilli plant assessed as percent disease index at 0.05% applied as spray on day 10 post inoculation and twice every 20 days measured on day 155 post sowing in green house conditions (reference value: 62.5 to 68.6%); assay type: functional
[15] = tested on: Colletotrichum truncatum; assay: Fungicidal activity against Colletotrichum capsici assessed as reduction of polygalacturonase trans-eliminase production at 1 ug/ml incubated for 10 days measured up to 120 min by Ostwald-Fenske viscometric analysis (reference value: 40.8%); assay type: functional; set-up: scale not given: the % may be the effect or the level left
[16] = tested on: Colletotrichum truncatum; assay: Fungicidal activity against Colletotrichum capsici assessed as linear growth at 0.5 ug/ml incubated 16 hr photoperiod for 20 days (reference value: 90 mm); assay type: functional
[17] = tested on: Colletotrichum truncatum; assay: Fungicidal activity against Colletotrichum capsici assessed as mycelial biomass at 0.5 ug/ml incubated 16 hr photoperiod for 20 days (reference value: 675 mg); assay type: functional
[18] = tested on: Colletotrichum truncatum; assay: Fungicidal activity against Colletotrichum capsici assessed as linear growth at 25 ug/ml incubated 16 hr photoperiod for 20 days (reference value: 90 mm); assay type: functional
[19] = tested on: Colletotrichum truncatum; assay: Fungicidal activity against Colletotrichum capsici infected chilli plant assessed as fruit mass measured per pot at 0.025% applied as spray on day 10 post inoculation and twice every 20 days measured on day 155 post sowing in green house conditions (reference value: 85.3 to 94.5 g); assay type: functional
[20] = tested on: Colletotrichum truncatum; assay: Fungicidal activity against Colletotrichum capsici assessed as mycelial biomass at 1 ug/ml incubated 16 hr photoperiod for 20 days (reference value: 675 mg); assay type: functional
[21] = tested on: Colletotrichum truncatum; assay: Fungicidal activity against Colletotrichum capsici assessed as linear growth at 0.1 ug/ml incubated 16 hr photoperiod for 20 days (reference value: 90 mm); assay type: functional
[22] = tested on: Colletotrichum truncatum; assay: Fungicidal activity against Colletotrichum capsici infected chilli plant assessed as percent disease index at 0.025% applied as spray on day 10 post inoculation and twice every 20 days measured on day 155 post sowing in green house conditions (reference value: 62.5 to 68.6%); assay type: functional
[23] = tested on: Colletotrichum truncatum; assay: Fungicidal activity against Colletotrichum capsici assessed as mycelial biomass at 0.1 ug/ml incubated 16 hr photoperiod for 20 days (reference value: 675 mg); assay type: functional
[24] = tested on: Colletotrichum truncatum; assay: Fungicidal activity against Colletotrichum capsici assessed as mycelial biomass at 10 ug/ml incubated 16 hr photoperiod for 20 days (reference value: 675 mg); assay type: functional
[25] = tested on: Colletotrichum truncatum; assay: Fungicidal activity against Colletotrichum capsici assessed as inhibition of mycelial growth; assay type: functional; conditions: Colletotrichum truncatum; read-out: ED50 (the source's name)
[26] = tested on: Colletotrichum truncatum; assay: Fungicidal activity against Colletotrichum capsici assessed as mycelial biomass at 50 ug/ml incubated 16 hr photoperiod for 20 days (reference value: 675 mg); assay type: functional
[27] = tested on: Colletotrichum truncatum; assay: Fungicidal activity against Colletotrichum capsici assessed as inhibition of spore germination at 0.1 ug/ml after 48 to 96 hr relative to control; assay type: functional
[28] = tested on: Capsicum annuum; assay: Phytotoxicity in Capsicum annuum (pepper) at 0.1% applied as spray; assay type: organism-based; conditions: in vivo, other
[29] = tested on: Colletotrichum truncatum; assay: Fungicidal activity against Colletotrichum capsici assessed as sporulation at 1 ug/ml incubated 16 hr photoperiod for 20 days by haemocytometer (reference value: 0.081 x 10^6 ml'-1); assay type: functional
[30] = tested on: Colletotrichum truncatum; assay: Fungicidal activity against Colletotrichum capsici assessed as spore germination at 0.5 ug/ml after 48 to 96 hr (reference value: 70.2 CFU); assay type: functional
[31] = tested on: Colletotrichum truncatum; assay: Fungicidal activity against Colletotrichum capsici assessed as reduction of pectin trans-eliminase production at 1 ug/ml incubated for 10 days measured up to 120 min by Ostwald-Fenske viscometric analysis (reference value: 38.5%); assay type: functional; set-up: scale not given: the % may be the effect or the level left
[32] = tested on: Colletotrichum truncatum; assay: Fungicidal activity against Colletotrichum capsici infected chilli plant assessed as fruit yield measured per plot at 0.05% applied as spray on day 10 post inoculation and twice every 20 days measured on day 155 post sowing in field conditions (reference value: 8.25 to 9.3 kg); assay type: functional
[33] = tested on: Colletotrichum truncatum; assay: Fungicidal activity against Colletotrichum capsici assessed as spore germination at 1 ug/ml after 48 to 96 hr (reference value: 70.2 CFU); assay type: functional
[34] = tested on: Colletotrichum truncatum; assay: Fungicidal activity against Colletotrichum capsici assessed as linear growth at 1 ug/ml incubated 16 hr photoperiod for 20 days (reference value: 90 mm); assay type: functional
[35] = tested on: Colletotrichum truncatum; assay: Fungicidal activity against Colletotrichum capsici assessed as sporulation at 0.5 ug/ml incubated 16 hr photoperiod for 20 days by haemocytometer (reference value: 0.081 x 10^6 ml'-1); assay type: functional

| SMILES | Activity [1] [×10⁶ /ml] | Crop_yield [2] [g] | Activity [3] [×10⁶ /ml] | CFU [4] | PDI [5] [%] | Activity [6] [mg] | Activity [7] [cm] | Activity [8] [cm] | Activity [9] [×10⁶ /ml] | Activity [10] [mm] | CFU [11] | Activity [12] [×10⁶ /ml] | Crop_yield [13] [kg] | PDI [14] [%] | Activity [15] [%] | Activity [16] [mm] | Activity [17] [mg] | Activity [18] [mm] | Crop_yield [19] [g] | Activity [20] [mg] | other results |
| --- | --- | --- | --- | --- | --- | --- | --- | --- | --- | --- | --- | --- | --- | --- | --- | --- | --- | --- | --- | --- | --- |
| CC1COC(Cn2cncn2)(c2ccc(Oc3ccc(Cl)cc3)cc2Cl)O1 (stereo not given) [DIFENOCONAZOLE] | 0 | 140.5 | 0.37 | 0 | 33 | 0 | 9.2 | 7 | 0 | 9 | 0 | 3.25 | 9.1 | 22.2 | 12.5 | 48.5 | 350 | 9 | 100.6 | 243 | Activity [21]: 73.5 mm; PDI [22]: 34.5%; Activity [23]: 465 mg; Activity [24]: 47 mg; EC50 [25]: 0.15 µg/mL (≈ 0.369 µM); Activity [26]: 0 mg; inhibition at 0.1 µg/mL [27]: 40%; Activity [28]: Toxic; Activity [29]: 1.02 ×10⁶ /ml; CFU [30]: 22.4; Activity [31]: 15.6%; Crop_yield [32]: 12.34 kg; CFU [33]: 7.8; Activity [34]: 39.3 mm; Activity [35]: 2.25 ×10⁶ /ml |
| CCCC1COC(Cn2cncn2)(c2ccc(Cl)cc2Cl)O1 (stereo not given) [PROPICONAZOLE] | 0 | 130 | 0 | 0 | 30.6 | 0 | 9.2 | 7.1 | 0 | 9 | 0 | 2.83 | 9.86 | 25.7 | 8.5 | 39.2 | 240 | 9 | 112.8 | 129 | Activity [21]: 55.3 mm; PDI [22]: 33%; Activity [23]: 410 mg; Activity [24]: 0 mg; EC50 [25]: 0.19 µg/mL (≈ 0.555 µM); Activity [26]: 0 mg; inhibition at 0.1 µg/mL [27]: 62%; Activity [28]: Non-toxic; Activity [29]: 0.33 ×10⁶ /ml; CFU [30]: 15.5; Activity [31]: 12%; Crop_yield [32]: 13.1 kg; CFU [33]: 3.3; Activity [34]: 20.5 mm; Activity [35]: 1.3 ×10⁶ /ml |
